Common to all, as to assay type: cell-based, pig
Assay [1] deals with porcine XEN cells. The assay can be described thus: Culture of porcine XEN cells under various concentrations of essential factors (colony number, qPCR). Conditions: for concentration range appropriate for XEN cell culture: 7 days, colony number and qPCR of GATA6, SALL4, SPARC. On the procedure:
Total RNA was extracted using TRIzol reagent (Invitrogen; Carlsbad, USA) and cDNA was synthesized using High-Capacity RNA-to-cDNA Kit (Applied Biosystems; Waltham, MA, USA). cDNA was amplified using the primer sets listed in Table 1 below and PowerSYBR® Green PCR Master Mix (Applied Biosystems).
In addition, in order to fine-tune the culture system, porcine XEN cells were cultured under various concentrations of essential factors including FGF2, LIF and CHIR99021.

The test system of assay [2] is porcine XEN cells. The assay can be described thus: Withdrawal of signaling molecules or supplements from porcine XEN cell medium (morphology, AP staining, GATA6 ICC). As to conditions: for colony morphology / proliferation on withdrawal of the factor: factor withdrawn from medium with B27, CHIR, FGF2, LIF, Act A, FIG. 3a; for AP staining and GATA6 expression on withdrawal of the factor: factor withdrawn, FIG. 3b, 3c. The procedure: Before staining, all cell samples were pre-cultured at 4° C. for 10 minutes and fixed with 4% paraformaldehyde for 15 minutes. After washing with Dulbecco's Phosphate Buffered Saline (DPBS) (Welgene), the fixed cells were stained with a buffer solution containing nitro blue tetrazolium chloride and 5-bromo-4-chloro-3-indolyl phosphate toluidine salt stock solution (Roche; Basel, Switzerland) at room temperature for 30 minutes. Stained cells were observed under an inverted microscope.
For immunostaining, the cells were fixed in 4% (w/v) paraformaldehyde. After washing with Dulbecco's Phosphate Buffered Saline (DPBS), the fixed cells were treated with 0.2% Triton-X100 (Sigma-Aldrich) at 4° C. for 2 hours. The cells were then treated with Dulbecco's Phosphate Buffered Saline (DPBS) containing 10% (v/v) goat or donkey serum for 1 hour to prevent non-specific binding. Serum-treated cells were cultured with primary antibodies at 4° C. for 24 hours. The primary antibodies used were as follows: rabbit anti-SOX2 (1:200, Millipore; AB5603), rabbit anti-NANOG (1:200, PeproTech; Rocky Hill, NJ, USA; 500-P236), chicken anti-OCT4 (1:100, Abcam; Cambridge, UK; ab134218), goose anti-GATA6 (15 μg/mL; R&D systems; AF1700), goose anti-SOX17 (1:200, R&D systems; AF1924), and rabbit anti-GATA4 (1:200, Abcam; ab84593). After incubation with primary antibodies, the cells were treated with Alexa Fluor-conjugated secondary antibodies at 4° C. for 24 hours. Nuclei were stained with Hoechst 33342 (Molecular Probes; Eugene, OR, USA). Images of stained cells were taken using a TE2000-U inverted fluorescence microscope (Nikon; Tokyo, Japan).
FIGS. 3a, 3b and 3c show changes in the withdrawal of signaling molecules or supplements for XEN cells.
In order to optimize the culture system of porcine XEN cells, B27 supplement, CHIR, FGF2, LIF or Act A was withdrawn from the medium during maintenance, and essential growth factors and signaling molecules were identified. Colonies were morphologically analyzed (FIG. 3a). […] In order to verify the responsiveness to these factors, AP staining and ICC for GATA6, which is a representative XEN cell marker, were performed to support the morphological analysis results (FIGS. 3b and 3c).

In assay [3] the test system is porcine XEN cells. In words: Screening of serum-free culture conditions (signaling molecules, KSR, B27) for porcine XEN cells. As to conditions: FIG. 2a. The procedure: Porcine XEN cells were cultured under various conditions. Each of six fetal bovine serum (FBS) (three different batches purchased from Hyclone, Biowest, TCB and Genedepot) was applied to maintain porcine XEN cells. In addition, several signaling molecules and supplements were added to the basal medium supplemented with 15% (v/v), 10% (v/v) or 5% (v/v) knockout serum replacement (KSR) (Gibco; Gaithersburg, MD, USA) and tested. Factors tested were fibroblast growth factor 2 (FGF2) (R&D Systems; Minneapolis, MN, USA), human recombinant leukemia inhibitory factor (hrLIF) (Millipore; MA, USA), 5 ng/ml activin A (Activin A; R&D Systems), CHIR99021 (Cayman chemical; Ann Arbor, MI, USA), which is a GSK-3B inhibitor, and 1×B27 supplement (Gibco). The basal medium was a DMEM/F12 based medium, which consisted of 1× Glutamax, 0.1 mM β-mercaptoethanol and 1× antibiotic-antimycotic (all of which are manufactured by Gibco). The medium was changed every 24 hours and cultured under conditions of 5% CO2, 5% O2 and 38° C.
The present inventors performed screening of various factors in a DMEM/F12-based KSR-containing medium, which is commonly used for a serum-free medium in stem cells.

Entries after “also recorded” stand apart in the source; their conditions may differ.

In the case of “LIF: human recombinant leukemia inhibitory factor (hrLIF) (Millipore)”, in the assay on porcine XEN cells [1], the “concentration range appropriate for XEN cell culture” value (from here on “concentration range appropriate”) lay within 0.1 to 20 ng/mL. Further, in the assay on porcine XEN cells [2], the “colony morphology / proliferation on withdrawal of the factor” value (from here on “colony morphology / proliferation”) is “cell proliferation was inhibited”; the “AP staining and GATA6 expression on withdrawal of the factor” value (from here on “AP staining and GATA6 expression”) was “detected locally; also recorded: intense GATA6 expression only in the colony center”.
Turning to `Cc1c[nH]c(-c2cnc(NCCNc3ccc(C#N)cn3)nc2-c2ccc(Cl)cc2Cl)n1` [CHIR99021, reference compound], the “concentration range appropriate” value in the assay with porcine XEN cells [1] was in the range of 0.5 to 4.5 µM. In the assay with porcine XEN cells [2], the “colony morphology / proliferation” value is “colony boundaries collapsed and cell density within colonies decreased”; the “AP staining and GATA6 expression” value is listed as “detected locally”.
“FGF2: fibroblast growth factor 2 (FGF2) (R&D Systems)”: the “concentration range appropriate” value in the assay on porcine XEN cells [1] is 10 to 100 ng/mL. In addition, the “number of XEN colonies” value in the assay with porcine XEN cells [1] (low concentration of the factor, FIG. 4a, 4b) was “few colonies were detected”. Moreover, in the assay on porcine XEN cells [2], the “colony morphology / proliferation” value is reported as “no colonies after 4 days”; the “AP staining and GATA6 expression” value is listed as “detected locally”. Further, in the assay with porcine XEN cells [3] (DMEM/F12-based KSR-containing medium, factor alone), the doubling time entry is given as “prolonged”. Besides, the “proliferation / growth of XEN cells” value in the assay with porcine XEN cells [3] (DMEM/F12-based KSR-containing serum-free medium, 2b) is “insufficient to proliferate XEN cells”.

B1: Act A: activin A (R&D Systems) (protein, UniProt P08476 311-426, looked up)
Inhibin beta A chain: GLECDGKVNICCKKQFFVSFKDIGWNDWIIAPSGYHANYCEGECPSHIAGTSGSSLSFHSTVINHYRMRGHSPFANLKSCCVPTKLRPMSMLYYDDGQNIIKKDIQNMIVEECGCS
modifications: Inhibin beta A chain
As to B1, the “AP staining and GATA6 expression” value in the assay with porcine XEN cells [2] is “evenly positive”. Also, in the assay with porcine XEN cells [2] (high concentration, control versus Act A withdrawn), the “self-renewal of porcine XEN cells” value was “inhibits the self-renewal”.

Source of the values: patent US20250129331A1, “MEDIUM COMPOSITION FOR CULTURE OF EXTRAEMBRYONIC ENDODERM STEM CELLS” (SEOUL NATIONAL UNIVERSITY R&DB FOUNDATION, priority 2023, published 2025).
